How the values were obtained:
CT26 tumor = test: Anti-tumor efficacy in CT26 tumor model; type: in vivo, female BALB/c mice
Source text: The present Example describes anti-tumor effects of a combination of a TIGIT antagonist, a PD-1 antagonist and lenvatinib using a CT26 tumor model.
Prior to treatment initiation, female BALB/c mice aged 8 weeks weighing between 18 to 21 grams were anesthetized and subcutaneously injected into the rear flank with 0.3×10^6 CT26 log-phase sub-confluent cells. When the mean tumor volume of inoculated animals with CT26 reached approximately 146 mm^3 (13 days later) mice were pair-matched into 8 treatment groups consisting of 10 mice per group.
Antibody Reagents in this Example Include: • Anti-PD-1 mIgG1 antibody, which is a murinized version of a rat anti-mouse PDT Ab with a mouse IgG1 Fe; • Anti-TIGIT mIgG2a antibody having a mouse Fe region of mIgG2a subtype that is the murine counterpart isotype to human isotype IgG1; • Isotype mIgG1 antibody, which is a mouse IgG1 isotype-matched control monoclonal antibody specific for adenoviral hexon 25; and • Isotype mIgG2a antibody, which is a mouse IgG2a isotype-matched control monoclonal antibody specific for adenoviral hexon 25.
• 1) 0.5% methylcellulose (Vehicle)+isotype mIgG1 antibody+isotype mIgG2a antibody; • 2) Vehicle+anti-PD-1 mIgG1 antibody+isotype mIgG1 antibody; • 3) Vehicle+isotype mIgG1 antibody+anti-TIGIT mIgG2a antibody; • 4) Lenvatinib+isotype mIgG1 antibody+isotype mIgG2a antibody; • 5) Vehicle+anti-PD-1 mIgG1 antibody+anti-TIGIT mIgG2a antibody; • 6) Lenvatinib+anti-PD-1 mIgG1 antibody+isotype mIgG2a antibody; • 7) Lenvatinib+isotype mIgG1 antibody+anti-TIGIT mIgG2a antibody; and • 8) Lenvatinib+anti-PD-1 mIgG1 antibody+anti-TIGIT mIgG2a antibody.
Vehicle and lenvatinib were orally gavage-dosed once daily (QD) at 10 mg/kg body weight. Isotype control, a mouse monoclonal antibody specific for adenoviral hexon on IgG1 or IgG2a backbones, as well as anti-PD-1 and anti-TIGIT antibodies were dosed intraperitoneally every 5 days at 10 mg/kg body weight. Start of treatments was considered Day 0 and dosing based on described schedules continued as described until Day 40. […]

[1] = in vivo; cited from earlier work
[2] = Day 40, 10 mice per group, lenvatinib 10 mg/kg QD, antibodies 10 mg/kg IP every 5 days

COc1cc2nccc(Oc3ccc(NC(=O)NC4CC4)c(Cl)c3)c2cc1C(N)=O [Lenvatinib monotherapy, 4-[3-chloro-4-(cyclopropylaminocarbonyl)aminophenoxy]-7-methoxy-6-quinolinecarboxamide]
TGI at Day 12 (CT26 tumor; CT26 s.c. tumors, treatment started at 146 mm^3, lenvatinib 10 mg/kg orally QD, antibodies 10 mg/kg intraperitoneally every 5 days, vs Vehicle group at Day 12): 36% (p = 0.014)
End of study CRs (complete tumor regressions) (CT26 tumor; [2]): 0 CRs, 0 PRs
End of study PRs (partial tumor regressions) (CT26 tumor; [2]): 0 CRs, 0 PRs
half-life [1]: 28 h
